The text below walks through data of ChEMBL document CHEMBL2390846, “Small-molecule pyrimidine inhibitors of the cdc2-like (Clk) and dual specificity tyrosine phosphorylation-regulated (Dyrk) kinases: development of chemical probe ML315” (Bioorg Med Chem Lett, 2013).

What is called IC50 is the point on the concentration scale where inhibition reaches its midpoint. A word on the inhibition: it is the percentage by which the read-out fell short of the control. As a reminder, the solubility is the concentration that dissolves in the medium under given conditions. A lower solubility goes with a poorly soluble substance.

Data set [1] concerns the target Dual specificity protein kinase CLK1 (Homo sapiens, UniProt P49759).
In data set [2] the target is T1, Dual specificity protein kinase CLK4 (Homo sapiens, UniProt Q9HAZ1). Briefly: Inhibition of CLK4 (unknown origin) by bioluminescence assay. Particulars: read-out: IC50.
T1 sequence (Q9HAZ1 whole entry): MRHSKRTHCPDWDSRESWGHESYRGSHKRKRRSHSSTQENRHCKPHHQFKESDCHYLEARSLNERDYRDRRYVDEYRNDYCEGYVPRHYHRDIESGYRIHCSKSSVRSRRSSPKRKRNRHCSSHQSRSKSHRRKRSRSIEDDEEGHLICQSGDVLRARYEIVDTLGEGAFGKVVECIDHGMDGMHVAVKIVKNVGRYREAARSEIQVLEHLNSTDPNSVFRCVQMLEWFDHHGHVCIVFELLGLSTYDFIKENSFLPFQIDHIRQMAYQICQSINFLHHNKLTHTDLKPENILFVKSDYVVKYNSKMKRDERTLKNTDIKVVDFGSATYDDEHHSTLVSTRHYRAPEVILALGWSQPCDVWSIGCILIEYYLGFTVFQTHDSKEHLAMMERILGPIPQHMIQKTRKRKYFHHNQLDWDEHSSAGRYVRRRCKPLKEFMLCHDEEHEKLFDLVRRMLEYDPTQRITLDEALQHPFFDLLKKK
The target of data set [3] is Dual specificity protein kinase CLK2 (Homo sapiens, UniProt P49760).
Sequence of Dual specificity protein kinase CLK2 (P49760 whole entry): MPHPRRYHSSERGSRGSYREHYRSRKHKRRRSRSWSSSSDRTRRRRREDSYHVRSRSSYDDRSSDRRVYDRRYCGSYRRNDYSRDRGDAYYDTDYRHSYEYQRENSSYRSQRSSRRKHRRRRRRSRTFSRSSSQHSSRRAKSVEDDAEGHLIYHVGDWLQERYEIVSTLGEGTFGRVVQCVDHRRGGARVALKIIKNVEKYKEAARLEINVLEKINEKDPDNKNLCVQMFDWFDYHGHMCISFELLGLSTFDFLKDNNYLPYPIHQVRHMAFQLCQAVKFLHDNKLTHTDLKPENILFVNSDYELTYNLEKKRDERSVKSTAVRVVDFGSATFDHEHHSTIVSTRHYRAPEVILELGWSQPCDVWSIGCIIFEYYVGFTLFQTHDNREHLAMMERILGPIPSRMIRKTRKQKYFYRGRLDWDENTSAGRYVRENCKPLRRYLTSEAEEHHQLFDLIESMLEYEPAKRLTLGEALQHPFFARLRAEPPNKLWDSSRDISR
The target of data set [4] is Dual specificity protein kinase CLK3 (Homo sapiens, UniProt P49761).
Sequence of Dual specificity protein kinase CLK3 (P49761 whole entry): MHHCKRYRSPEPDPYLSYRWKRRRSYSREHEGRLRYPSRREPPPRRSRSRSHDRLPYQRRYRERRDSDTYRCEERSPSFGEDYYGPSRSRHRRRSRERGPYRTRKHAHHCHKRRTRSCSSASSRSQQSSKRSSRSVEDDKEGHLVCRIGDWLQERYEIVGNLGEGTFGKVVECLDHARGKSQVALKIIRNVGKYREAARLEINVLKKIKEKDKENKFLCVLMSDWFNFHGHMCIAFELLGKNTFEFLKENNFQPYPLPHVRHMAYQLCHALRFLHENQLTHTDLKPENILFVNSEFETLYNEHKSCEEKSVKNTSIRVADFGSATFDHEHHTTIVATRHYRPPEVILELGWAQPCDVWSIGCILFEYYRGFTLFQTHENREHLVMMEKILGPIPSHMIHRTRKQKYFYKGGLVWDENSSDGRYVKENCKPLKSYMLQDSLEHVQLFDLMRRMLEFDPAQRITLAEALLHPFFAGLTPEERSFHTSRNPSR
Data set [5] has as its target T1, Dual specificity protein kinase CLK4.
For data set [6], the target named is T2, Dual specificity tyrosine-phosphorylation-regulated kinase 1A (Homo sapiens, UniProt Q13627). Briefly: Inhibition of DYRK1A (unknown origin) by bioluminescence assay. Conditions: read-out: IC50.
Data set [7] deals with T2, Dual specificity tyrosine-phosphorylation-regulated kinase 1A.
Data set [8] deals with Dual specificity tyrosine-phosphorylation-regulated kinase 1B (Homo sapiens, UniProt Q9Y463).
Sequence of Dual specificity tyrosine-phosphorylation-regulated kinase 1B (Q9Y463 whole entry): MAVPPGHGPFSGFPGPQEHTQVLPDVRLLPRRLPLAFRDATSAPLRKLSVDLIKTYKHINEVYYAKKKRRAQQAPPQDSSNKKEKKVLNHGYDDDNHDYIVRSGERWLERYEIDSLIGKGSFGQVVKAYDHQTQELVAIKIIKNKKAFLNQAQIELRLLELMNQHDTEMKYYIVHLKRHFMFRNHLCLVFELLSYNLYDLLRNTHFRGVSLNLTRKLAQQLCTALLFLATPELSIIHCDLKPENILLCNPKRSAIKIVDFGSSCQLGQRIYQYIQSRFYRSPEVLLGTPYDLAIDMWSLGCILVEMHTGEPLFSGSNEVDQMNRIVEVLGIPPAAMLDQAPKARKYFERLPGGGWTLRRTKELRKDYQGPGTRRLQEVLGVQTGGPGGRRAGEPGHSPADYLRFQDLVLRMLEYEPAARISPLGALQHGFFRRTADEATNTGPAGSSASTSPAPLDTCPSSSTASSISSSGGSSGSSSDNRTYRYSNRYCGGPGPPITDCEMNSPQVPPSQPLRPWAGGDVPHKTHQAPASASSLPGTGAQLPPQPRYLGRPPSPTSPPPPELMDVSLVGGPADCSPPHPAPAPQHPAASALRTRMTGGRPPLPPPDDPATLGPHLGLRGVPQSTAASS
Data set [9] in a line: Permeability of the compound in aqueous buffer at donor compartment pH 7.4 and acceptor compartment pH 7.4 by PAMPA. In kind it is ADME.
The nature of data set [10]: Hepatotoxicity against human Fa2N-4 cells. Particulars: read-out: LC50 (the source's name). Format: toxicity, cell-based.
The nature of data set [11]: Metabolic stability in mouse plasma assessed as compound remaining at 3 hrs. In kind it is ADME, cell-free. Particulars: read-out: Stability.
Data set [12] deals with L-type calcium channel, benzothiazepine binding site (Rattus norvegicus, UniProt P22002+P27732+Q02485). Briefly: Inhibition of rat L-type calcium channel benzothiazepine binding site at 10 uM relative to control.
Data set [13] can be described thus: Plasma protein binding in human at 1 uM. Format: ADME, cell-free. Particulars: read-out: PPB (converted).
The nature of data set [14]: Solubility of the compound in assay media at pH 7.5. Format: physicochemical.
Data set [15] can be described thus: Permeability of the compound in aqueous buffer at donor compartment pH 5.0 and acceptor compartment pH 7.4 by PAMPA. In kind it is ADME.
Data set [16] is described as follows: Plasma protein binding in mouse at 10 uM. Conditions: read-out: PPB (converted). Format: ADME, cell-free.
Data set [17] can be described thus: Metabolic stability in human liver microsomes assessed as compound remaining at 1 hr. Particulars: read-out: Stability. Format: ADME, Microsome. On the technique in general: Liver microsomes are a subcellular fraction often used to study metabolism.
A short description of data set [18]: Aqueous solubility of the compound in PBS at pH 7.4. In kind it is physicochemical.
Data set [19] is described as follows: Plasma protein binding in mouse at 1 uM. Conditions: read-out: PPB (converted). In kind it is ADME, cell-free.
Data set [20] is described as follows: Metabolic stability in human plasma assessed as compound remaining at 3 hrs. Conditions: read-out: Stability. Format: ADME, cell-free.
The nature of data set [21]: Plasma protein binding in human at 10 uM. Format: ADME, cell-free. Particulars: read-out: PPB (converted).
A short description of data set [22]: Permeability of the compound in aqueous buffer at donor compartment pH 6.2 and acceptor compartment pH 7.4 by PAMPA. Format: ADME. For orientation: The PAMPA barrier holds no transporters, so it reflects passive diffusion.
The target in data set [23] is hERG (KCNH2) (Homo sapiens, UniProt Q12809). Nature of the data set: Inhibition of human ERG at 10 uM relative to control.
Sequence of hERG (KCNH2) (Q12809 whole entry): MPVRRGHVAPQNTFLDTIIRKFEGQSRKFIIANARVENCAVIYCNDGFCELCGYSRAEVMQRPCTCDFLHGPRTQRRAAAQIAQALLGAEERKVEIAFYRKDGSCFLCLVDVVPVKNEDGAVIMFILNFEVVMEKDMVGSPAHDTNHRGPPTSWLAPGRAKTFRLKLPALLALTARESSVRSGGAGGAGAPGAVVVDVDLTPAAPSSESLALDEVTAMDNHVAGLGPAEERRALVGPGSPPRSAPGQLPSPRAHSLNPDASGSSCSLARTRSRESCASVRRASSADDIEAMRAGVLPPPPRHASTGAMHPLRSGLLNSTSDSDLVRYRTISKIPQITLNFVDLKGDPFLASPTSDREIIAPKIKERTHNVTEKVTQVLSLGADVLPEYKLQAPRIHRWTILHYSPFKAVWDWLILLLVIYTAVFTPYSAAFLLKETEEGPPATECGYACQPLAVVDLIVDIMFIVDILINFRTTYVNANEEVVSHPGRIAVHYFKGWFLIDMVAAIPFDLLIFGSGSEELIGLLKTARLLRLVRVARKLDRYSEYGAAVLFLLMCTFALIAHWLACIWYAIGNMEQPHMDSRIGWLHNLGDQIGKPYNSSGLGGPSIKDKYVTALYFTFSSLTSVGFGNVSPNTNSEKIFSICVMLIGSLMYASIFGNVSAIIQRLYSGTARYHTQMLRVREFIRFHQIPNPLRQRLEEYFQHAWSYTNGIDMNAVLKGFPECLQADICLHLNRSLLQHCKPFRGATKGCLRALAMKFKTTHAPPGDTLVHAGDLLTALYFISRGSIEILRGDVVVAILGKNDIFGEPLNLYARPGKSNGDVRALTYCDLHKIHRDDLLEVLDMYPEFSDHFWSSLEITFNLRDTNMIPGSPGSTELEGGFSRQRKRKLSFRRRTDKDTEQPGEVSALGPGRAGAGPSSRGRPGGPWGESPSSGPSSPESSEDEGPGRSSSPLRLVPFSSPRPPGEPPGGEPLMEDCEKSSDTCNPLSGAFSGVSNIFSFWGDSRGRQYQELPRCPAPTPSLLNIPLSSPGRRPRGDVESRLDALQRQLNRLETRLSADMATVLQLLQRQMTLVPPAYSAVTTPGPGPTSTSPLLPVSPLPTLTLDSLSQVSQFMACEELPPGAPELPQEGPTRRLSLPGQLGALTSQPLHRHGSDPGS
Data set [24] can be described thus: Metabolic stability in mouse liver microsomes assessed as compound remaining at 1 hr. Format: ADME, Microsome. Particulars: read-out: Stability.

Converted amounts (≈) assume the structure as drawn. Bounds are passed on as bounds.

Sequence of Dual specificity protein kinase CLK1 (P49759 whole entry): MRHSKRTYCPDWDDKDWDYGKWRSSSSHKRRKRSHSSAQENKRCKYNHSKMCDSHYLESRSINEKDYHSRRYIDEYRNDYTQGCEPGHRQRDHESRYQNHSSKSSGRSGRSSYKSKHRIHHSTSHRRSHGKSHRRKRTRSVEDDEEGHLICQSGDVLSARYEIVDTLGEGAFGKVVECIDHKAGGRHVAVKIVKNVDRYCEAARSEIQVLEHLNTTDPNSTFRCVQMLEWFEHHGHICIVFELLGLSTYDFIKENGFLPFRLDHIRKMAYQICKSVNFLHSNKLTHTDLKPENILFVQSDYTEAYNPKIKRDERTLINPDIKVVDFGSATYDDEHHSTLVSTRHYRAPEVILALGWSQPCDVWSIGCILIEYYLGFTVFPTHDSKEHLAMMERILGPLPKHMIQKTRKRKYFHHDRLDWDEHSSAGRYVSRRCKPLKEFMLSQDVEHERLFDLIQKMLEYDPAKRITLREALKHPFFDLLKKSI

Take `FC(F)(F)c1cccc(Nc2nccc(-c3ccc4c(c3)OCO4)n2)c1`: the IC50 in [1] is 34 nM; in data set [2] it was 70 nM; in data set [3] it was 52 nM; in [4], above 10000 nM; in data set [5], 42 nM; in data set [6] it was 70 nM. The IC50 in [7] came to 10 nM; in data set [8] it was 18 nM.
For the compound `c1cncc(CNc2nccc(-c3ccc4c(c3)OCO4)n2)c1`, the IC50 in [1] was found to be 11 nM; in data set [2] it was 20 nM; in data set [3] it was 60 nM; in [4], 1470 nM; in [5], 16 nM; in data set [6], 40 nM. Moreover, the IC50 in data set [7] was determined as 7 nM; in [8] it was 12 nM.
Take `Clc1cc(Cl)cc(CNc2ncncc2-c2ccc3c(c2)OCO3)c1`: the permeability in data set [9] stood at 1150 ×10⁻⁶ cm/s; in data set [15], 2220 ×10⁻⁶ cm/s; in data set [22], 1360 ×10⁻⁶ cm/s. For the same compound, the CC50 in data set [10] was above 50000 nM. Besides, the remaining at 3 h was found to be 86.7% in [11] and 85.5% in [20]. Moreover, the inhibition at 10 µM in data set [12] came out at 26%; in [23], 44%. Besides, the fraction unbound at 1 µM in data set [13] was 0.0065; in data set [19], 0.0051. Further, the values for the solubility in data set [14] and in data set [18] were 1.71 µM (≈ 0.64 µg/mL) and 1.15 µM (≈ 0.43 µg/mL), respectively. Moreover, the IC50 in data set [1] is 68 nM; in data set [2], 130 nM; in data set [3] it was 231 nM; in data set [4], above 10000 nM; in [5], 68 nM; in [6] it was 2600 nM. The results for the IC50 in data set [7] and in [8] were 282 nM and 1160 nM, respectively. Moreover, the figures for the fraction unbound at 10 µM in [16] and in [21] were 0.0053 and 0.0022, respectively. The remaining at 1 h in data set [17] is 1.3%; in [24] it was 0.54%.
Turning to `Brc1ccc(CNc2nccc(-c3ccc4c(c3)OCO4)n2)cc1Br`, the IC50 in data set [1] was 24 nM; in data set [2], 80 nM; in data set [3] it was 30 nM; in data set [4], 3230 nM; in data set [5], 18 nM; in data set [6], 820 nM. For the same compound, the figures for the IC50 in data set [7] and in [8] were 79 nM and 112 nM, respectively.
Take `Clc1ccc(Nc2nccc(-c3ccc4c(c3)OCO4)n2)cc1`: the IC50 in data set [1] is 1260 nM; in data set [2], 370 nM; in [3] it was above 10000 nM; in data set [5], 5450 nM; in [6], 520 nM; in data set [7], 273 nM. In addition, the IC50 in data set [8] is 884 nM.
`COc1ccc(-c2ccnc(NCc3ccc(Cl)cc3)n2)cc1`: the concentration for half-maximal inhibition (IC50) in data set [1] came to 277 nM; in data set [2], 290 nM; in data set [3], 1090 nM; in [5] it was 319 nM; in data set [6] it was 2070 nM; in data set [7], 558 nM. For the same compound, the IC50 in [8] worked out at 871 nM.
In the case of `c1cncc(CNc2ccnc(-c3ccc4cn[nH]c4c3)n2)c1`, the IC50 in data set [1] worked out at 1600 nM; in data set [2], 290 nM; in data set [3], 1900 nM; in [5] it was 1290 nM; in [6] it was 2070 nM; in [7] it was 1430 nM. Besides, half-maximal inhibition in data set [8] (IC50) required 829 nM.
With `Clc1ccc(CNc2nccc(-c3ccc4c(c3)OCCO4)n2)cc1Cl`, the IC50 in data set [1] was 16 nM; in [2], 120 nM; in data set [3], 39 nM; in [4], above 10000 nM; in [5], 13 nM; in data set [6], 210 nM. Moreover, the IC50 came out at 18 nM in [7] and 55 nM in data set [8].
In the case of `COc1cccc(-c2ccnc(NCc3ccc(Cl)c(Cl)c3)n2)c1`, the IC50 in [1] was 5460 nM; in data set [2], 3680 nM; in data set [3], above 10000 nM; in data set [5] it was 3860 nM; in [6] it was 5820 nM; in [7], 4650 nM. In data set [8], this compound registered an IC50 above 10000 nM.
On to `Brc1cc(Br)cc(CNc2nccc(-c3ccc4c(c3)OCO4)n2)c1`, for which the IC50 amounted to 13 nM in [1]; 40 nM in data set [2]; 41 nM in [3]; 9 nM in data set [5]; 70 nM in data set [6]; 11 nM in [7]. Further, half-maximal inhibition in data set [8] (IC50) was put at 18 nM.
`Clc1ccc(CNc2ncncc2-c2ccc3c(c2)OCO3)cc1`: the IC50 in data set [1] amounted to 2370 nM; in data set [2] it was 5820 nM; in data set [3] it was 8790 nM; in data set [5] it was 9280 nM; in [6] it was 26000 nM; in [7] it was 4580 nM. This compound yielded an IC50 in data set [8] of 8860 nM.
Turning to `Clc1cc(Cl)cc(CNc2nccc(-c3ccc4c(c3)OCO4)n2)c1`, the IC50 in [1] is 2 nM; in data set [3] it was 23 nM; in data set [4], above 10000 nM; in data set [8], 7 nM.
Turning to `Clc1ccc(CNc2nccc(-c3ccc4c(c3)OCO4)n2)cc1Cl`, the IC50 in data set [1] was 8 nM; in [2] it was 40 nM; in data set [3] it was 20 nM; in [4] it was 3630 nM; in [5], 14 nM; in data set [6] it was 160 nM. In addition, the IC50 in data set [7] came out at 26 nM; in data set [8], 38 nM.
Consider `Clc1ccc(CNc2ncncc2-c2ccc3c(c2)OCO3)cc1Cl`, for which the 50% inhibitory concentration (IC50) in data set [1] came to 626 nM; in [2] it was 580 nM; in data set [3] it was 1560 nM; in [5] it was 526 nM; in [6] it was 4120 nM; in [7], 3450 nM. The compound also showed an IC50 in data set [8] above 10000 nM.
For `Clc1ccc(CNc2nccc(-c3ccc4[nH]ncc4c3)n2)cc1Cl`, the IC50 in [1] worked out at 41 nM; in data set [2], 30 nM; in data set [3], 190 nM; in [4], 2930 nM; in [5], 30 nM; in [6], 330 nM. The IC50 in data set [7] worked out at 129 nM; in [8], 125 nM.
For the compound `c1cncc(CNc2nccc(-c3ccc4[nH]ncc4c3)n2)c1`, the half-inhibitory concentration (IC50) in data set [1] turned out to be 73 nM; in data set [2] it was 30 nM; in [3], 462 nM; in data set [4] it was 2660 nM; in data set [5] it was 60 nM; in data set [6] it was 150 nM. The figures for the IC50 in data set [7] and in data set [8] were 61 nM and 93 nM, respectively.
Turning to `COc1cccc(-c2ccnc(NCc3ccc(Cl)cc3)n2)c1`, the IC50 in [1] is above 10000 nM; in [2] it was 5820 nM; in data set [3], above 10000 nM; in data set [5], 6810 nM; in data set [6] it was 7330 nM; in data set [7], 6360 nM. The compound further returned an IC50 in data set [8] of 6780 nM.
